Numbered stars: 1 amine (or outer) side, 2 acyl side, 3 side chain; on linkers, the order of the positions; unused ones are H or OH. Square brackets hold non-standard residues; d marks the D form. Side chains are listed from the residue outwards. Peptide text beside a SMILES is read from it. * marks the point of attachment. γGlu = O=C(O)[C@H](CCC(=O)[*:2])N[*:1]; Palmitoyl = CCCCCCCCCCCCCCCC(=O)*; Aib = CC(C)(N)C(=O)O
How the values were obtained:
[1] = Solubility assessment (UPLC-UV); type: physicochemical; conditions: acetate buffer pH 4.5, 2.7 mg/ml m-cresol (buffer system A), target 10 mg/ml
Procedure, shortened: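 Peptides at 10 mg/mL (purity-corrected, by UPLC/MS) in 100 mM acetate buffer pH 4.5 with 2.7 mg/ml m-Cresol, gently agitated 1 hour, then centrifuged 15 min at 2500 RCF. Supernatant, diluted 1:10, quantified by UPLC-UV peak area against a reference peptide standard curve, extinction-coefficient corrected.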

[2] = test system: female, diabetic db/db mice; test: Acute effects after subcutaneous treatment on blood glucose in non-fasting diabetic db/db mice; type: in vivo, mouse; conditions: for Blood glucose AUC compared to the Diabetic-Vehicle group: 24 h; for Plasma glucose area under the curve (mmol/L in 24 h): once 30 μg/kg s.c., mean ± SEM
Method: Female healthy, lean BKS.Cg-(lean)/OlaHsd and diabetes-prone, obese BKS.Cg-+Lepr^db/+Lepr^db/OlaHsd mice were ordered group housed from Envigo RMS Inc., shipped group housed and remained group housed in shoebox caging with wood chip bedding until day 15 of the predose phase. At the study start mice were approximately 12 weeks old.
Mice were housed under vivarium conditions including a 12 h light/dark cycle (light phase 04:00 AM-4:00 PM), room temperatures between 23-26° C. and a relative humidity between 30-70%. All animals had free access to water and Purina Fomulab Diet 5008.
On predose day 9 blood glucose and body mass (approximately between 08:00-10:00 AM) as well as HbA1c measurements were performed. On day 15 of the predose phase animals were assigned to treatment groups (n=8) and to new cages to match mean HbA1c and body masses between all db/db groups. An age-matched lean group was included in the study as a healthy, lean reference.
Prior to day 1 of the dosing phase, the test article was diluted with Phosphate Buffered Saline (PBS, Gibco, without CaCl2 and MgCl2) to a concentration of 1 mg/mL and aliquots of this stock solution were stored at approximately −60° C. On day 1 of the dosing phase the stock aliquot was thawed and the injected test article solution was prepared fresh by diluting it with PBS to achieve the desired concentration.
On Day 1 of the dosing phase db/db mice were either treated once with a s.c. injection of PBS-vehicle or 30 μg/kg test article. The lean reference group was treated once with a s.c. injection of PBS-vehicle. The dosing was initiated and completed between 08:00 and 10:00 AM. The applied volume was 5 ml/kg and the dose was adjusted to the most recent body mass recording of each individual.
Animals had unlimited access to water and feed during the experiment. On day 1 of the dosing phase approximately 5 μL of blood were collected via tail clips at minute −30 and 0 prior to any other inlife activities. At minute 0 mice received a s.c. dose of either PBS-vehicle or 30 μg/kg test article. Further blood samples were harvested at hour 0.25, 0.5, 1, 1.5, 2, 3, 4, 6, 8, and 24 post-dose. Glucose measurements were performed in whole blood using AlphaTRAK glucometers. If the glucose concentrations of two measurements differed by more than 20 mg/dL a third value was recorded. The Area Under the Curve (AUC) for blood glucose was calculated via the trapezoid method and for the duration of the 24 post-dose hours.
Data are depicted as means±SEM. […] A One-Way ANOVA and Tukey Test were used for pairwise multiple comparisons of all groups (n=8/group, deviations from group size are indicated). […] Data from a Non-Diabetic-Vehicle group serve as a reference dataset for the normoglycemic, lean state.
Female, 12 weeks old, healthy, lean BKS.Cg-(lean)/OlaHsd or diabetes-prone, obese BKS.Cg-+Leprdb/+Leprdb/OlaHsd mice were treated once with a s.c. injection of PBS, 30 μg/kg SEQ ID NO: 6 or 30 μg/kg SEQ ID NO: 7. The dosing was initiated and completed between 08:00 and 10:00 AM. The applied volume was 5 ml/kg and the dose was adjusted to the most recent body mass recording of each individual. Diabetic db/db mice were HbA1c- and body mass-matched. The lean reference group was treated once with a s.c. injection of PBS-vehicle.
Animals had unlimited access to water and feed during the experiment. On day 1 of the dosing phase approximately 5 μL of blood were collected via tail clips at minute −30 and 0 prior to any other inlife activities. At minute 0 mice received a s.c. dose of either PBS-vehicle, 30 μg/kg SEQ ID NO: 6 or SEQ ID NO: 7. Further blood samples were harvested at minute 15, 30, 60, 90, 120, 150, 180, 240, 360, and 480 post-dose. Glucose measurements were performed in whole blood using AlphaTRAK glucometers. If the glucose concentrations of two measurements differed by more than 20 mg/dL a third value was recorded. […]

[3] = 30 μg/kg s.c. once, fed db/db mice
[4] = 30 μg/kg s.c. once, fed db/db mice, in words

| solubility at 1 h [1] | Compound | Blood glucose AUC compared to the Diabetic-Vehicle group ([2]; 30 μg/kg s.c. once, in words) | Time post dose at which lowest blood glucose levels were reached [2, 3] | Blood glucose profile following single treatment [2, 4] | Mean blood glucose concentrations twenty four hours post-dose [2, 4] | Plasma glucose area under the curve (mmol/L in 24 h) ([2]; Table 12, fed db/db mice) | Plasma glucose area under the curve (mmol/L in 24 h) ([2]; Table 10, fed db/db mice) |
| --- | --- | --- | --- | --- | --- | --- | --- |
| > 10100 µg/mL | CCCCCCCCCCCCCCCC(=O)N[C@@H](CCC(=O)N[C@@H](CCC(=O)NCCCC[C@H](NC(=O)[C@H](CC(C)C)NC(=O)[C@H](CCCCN)NC(=O)[C@H](CO)NC(=O)[C@H](CC(C)C)NC(=O)[C@H](CC(=O)O)NC(=O)[C@H](CO)NC(=O)[C@@H](NC(=O)[C@H](Cc1ccccc1)NC(=O)[C@@H](NC(=O)CNC(=O)[C@H](CCC(N)=O)NC(=O)C(C)(C)NC(=O)[C@@H](N)Cc1c[nH]cn1)[C@@H](C)O)[C@@H](C)O)C(=O)N[C@@H](CCC(=O)O)C(=O)N[C@@H](CCC(=O)O)C(=O)N[C@@H](CCC(N)=O)C(=O)N[C@@H](CCCNC(=N)N)C(=O)N[C@@H](CCC(N)=O)C(=O)NC(C)(C)C(=O)N[C@@H](CCC(=O)O)C(=O)N[C@@H](Cc1ccccc1)C(=O)N[C@H](C(=O)N[C@@H](CCC(=O)O)C(=O)N[C@@H](Cc1c[nH]c2ccccc12)C(=O)N[C@@H](CC(C)C)C(=O)N[C@@H](CCCCN)C(=O)N[C@@H](C)C(=O)N[C@H](C)C(=O)NCC(=O)N1CCC[C@H]1C(=O)N1CCC[C@H]1C(=O)N[C@@H](CO)C(=O)NC(C)(C)C(=O)N[C@@H](CCCCN)C(=O)N1CCC[C@H]1C(=O)N1CCC[C@H]1C(=O)N1CCC[C@H]1C(=O)N[C@@H](CCCCN)C(N)=O)[C@@H](C)CC)C(=O)O)C(=O)O [SEQ ID NO: 10, H-Aib-Q-G-T-F-T-S-D-L-S-K-L-K[gGlu-gGlu-Palm]-E-E-Q-R-Q-Aib-E-F-I-E-W-L-K-A-dAla-G-P-P-S-Aib-K-P-P-P-K-NH2] (H-H[Aib]QGTFTSDLSKLK([γGlu-γGlu-Palmitoyl])EEQRQ[Aib]EFIEWLKA[dA]GPPS[Aib]KPPPK-NH2) | – | – | – | – | – | – |
| > 9300 µg/mL | CCCCCCCCCCCCCCCC(=O)N[C@@H](CCC(=O)N[C@@H](CCC(=O)NCCCC[C@H](NC(=O)[C@H](CC(C)C)NC(=O)[C@H](CCCCN)NC(=O)[C@H](CO)NC(=O)[C@H](CC(C)C)NC(=O)[C@H](CC(=O)O)NC(=O)[C@H](CO)NC(=O)[C@@H](NC(=O)[C@H](Cc1ccccc1)NC(=O)[C@@H](NC(=O)CNC(=O)[C@H](CCC(N)=O)NC(=O)C(C)(C)NC(=O)[C@@H](N)Cc1c[nH]cn1)[C@@H](C)O)[C@@H](C)O)C(=O)N[C@@H](CCC(=O)O)C(=O)N[C@@H](CCCCN)C(=O)N[C@@H](CCC(N)=O)C(=O)N[C@@H](CCCNC(=N)N)C(=O)N[C@@H](CCC(N)=O)C(=O)NC(C)(C)C(=O)N[C@@H](CCC(=O)O)C(=O)N[C@@H](Cc1ccccc1)C(=O)N[C@H](C(=O)N[C@@H](CCC(=O)O)C(=O)N[C@@H](Cc1c[nH]c2ccccc12)C(=O)N[C@@H](CC(C)C)C(=O)N[C@@H](CCCCN)C(=O)N[C@@H](C)C(=O)N[C@H](C)C(=O)NCC(=O)N[C@@H](Cc1c[nH]cn1)C(=O)N1CCC[C@H]1C(=O)N[C@@H](CO)C(=O)NC(C)(C)C(=O)N[C@@H](CCCCN)C(=O)N1CCC[C@H]1C(=O)N1CCC[C@H]1C(=O)N1CCC[C@H]1C(=O)N[C@@H](CCCCN)C(N)=O)[C@@H](C)CC)C(=O)O)C(=O)O [SEQ ID NO: 13, H-Aib-Q-G-T-F-T-S-D-L-S-K-L-K[gGlu-gGlu-Palm]-E-K-Q-R-Q-Aib-E-F-I-E-W-L-K-A-dAla-G-H-P-S-Aib-K-P-P-P-K-NH2] (H-H[Aib]QGTFTSDLSKLK([γGlu-γGlu-Palmitoyl])EKQRQ[Aib]EFIEWLKA[dA]GHPS[Aib]KPPPK-NH2) | statistically significant reduction in the blood glucose AUC | approximately 8 hours | acute decrease in blood glucose concentrations | close to baseline | +458.34 ± 27.11 mmol/L in 24 h | – |
| > 9900 µg/mL | CCCCCCCCCCCCCCCC(=O)N[C@@H](CCC(=O)N[C@@H](CCC(=O)NCCCC[C@H](NC(=O)[C@H](CC(C)C)NC(=O)[C@H](CCCCN)NC(=O)[C@H](CO)NC(=O)[C@H](CC(C)C)NC(=O)[C@H](CC(=O)O)NC(=O)[C@H](CO)NC(=O)[C@@H](NC(=O)[C@H](Cc1ccccc1)NC(=O)[C@@H](NC(=O)CNC(=O)[C@H](CCC(N)=O)NC(=O)C(C)(C)NC(=O)[C@@H](N)Cc1c[nH]cn1)[C@@H](C)O)[C@@H](C)O)C(=O)N[C@@H](CCC(=O)O)C(=O)N[C@@H](CCCCN)C(=O)N[C@@H](CCC(N)=O)C(=O)N[C@@H](CCCNC(=N)N)C(=O)N[C@@H](CCC(N)=O)C(=O)NC(C)(C)C(=O)N[C@@H](CCC(=O)O)C(=O)N[C@@H](Cc1ccccc1)C(=O)N[C@H](C(=O)N[C@@H](CCC(=O)O)C(=O)N[C@@H](Cc1c[nH]c2ccccc12)C(=O)N[C@@H](CC(C)C)C(=O)N[C@@H](CCCCN)C(=O)N[C@@H](C)C(=O)N[C@H](C)C(=O)NCC(=O)N1CCC[C@H]1C(=O)N1CCC[C@H]1C(=O)N[C@@H](CO)C(=O)NC(C)(C)C(=O)N[C@@H](CCCCN)C(=O)N1CCC[C@H]1C(=O)N1CCC[C@H]1C(=O)N1CCC[C@H]1C(=O)N[C@@H](CCCCN)C(N)=O)[C@@H](C)CC)C(=O)O)C(=O)O [SEQ ID NO: 7, H-Aib-Q-G-T-F-T-S-D-L-S-K-L-K[gGlu-gGlu-Palm]-E-K-Q-R-Q-Aib-E-F-I-E-W-L-K-A-dAla-G-P-P-S-Aib-K-P-P-P-K-NH2] (H-H[Aib]QGTFTSDLSKLK([γGlu-γGlu-Palmitoyl])EKQRQ[Aib]EFIEWLKA[dA]GPPS[Aib]KPPPK-NH2) | statistically significant reduction in the blood glucose AUC | approximately 8 hours | acute decrease in blood glucose concentrations | – | – | +461.54 ± 39.43 mmol/L in 24 h |
| > 10000 µg/mL | CCCCCCCCCCCCCCCC(=O)N[C@@H](CCC(=O)N[C@@H](CCC(=O)NCCCC[C@H](NC(=O)[C@H](CC(C)C)NC(=O)[C@H](CCCCN)NC(=O)[C@H](CO)NC(=O)[C@H](CC(C)C)NC(=O)[C@H](CC(=O)O)NC(=O)[C@H](CO)NC(=O)[C@@H](NC(=O)[C@H](Cc1ccccc1)NC(=O)[C@@H](NC(=O)CNC(=O)[C@H](CCC(N)=O)NC(=O)C(C)(C)NC(=O)[C@@H](N)Cc1c[nH]cn1)[C@@H](C)O)[C@@H](C)O)C(=O)N[C@@H](CCC(=O)O)C(=O)N[C@@H](CCC(=O)O)C(=O)N[C@@H](CCC(N)=O)C(=O)N[C@@H](CCCNC(=N)N)C(=O)N[C@@H](CCC(N)=O)C(=O)NC(C)(C)C(=O)N[C@@H](CCC(=O)O)C(=O)N[C@@H](Cc1ccccc1)C(=O)N[C@H](C(=O)N[C@@H](CCC(=O)O)C(=O)N[C@@H](Cc1c[nH]c2ccccc12)C(=O)N[C@@H](CC(C)C)C(=O)N[C@@H](CCCCN)C(=O)N[C@@H](C)C(=O)NCC(=O)NCC(=O)N[C@@H](Cc1c[nH]cn1)C(=O)N1CCC[C@H]1C(=O)N[C@@H](CO)C(=O)NC(C)(C)C(=O)N[C@@H](CCCCN)C(=O)N1CCC[C@H]1C(=O)N1CCC[C@H]1C(=O)N1CCC[C@H]1C(=O)N[C@@H](CCCCN)C(N)=O)[C@@H](C)CC)C(=O)O)C(=O)O [SEQ ID NO: 8, H-Aib-Q-G-T-F-T-S-D-L-S-K-L-K[gGlu-gGlu-Palm]-E-E-Q-R-Q-Aib-E-F-I-E-W-L-K-A-G-G-H-P-S-Aib-K-P-P-P-K-NH2] | – | – | – | – | – | – |

Source: patent US10519211B2, “Compounds as peptidic GLP1/glucagon/GIP receptor agonists” (SANOFI, priority 2016, dated 2019)
